Experimental data: PubChem BioAssay (NCI)
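Protocol summary: plate cells (96-well), add compound at 5 concentrations, incubate 48 h, interpolate endpoints linearly. At the GI50, growth is halved. The concentration for full growth arrest is given as TGI.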

Tests used:
Assay in all cases: growth of human tumour cells (NCI), 48 h
[1] = tested on: OVCAR-3 ovarian
[2] = tested on: MDA-MB-435
[3] = tested on: SK-MEL-28 melanoma
[4] = tested on: UACC-62 melanoma
[5] = tested on: DU-145 prostate
[6] = tested on: UO-31 renal
[7] = tested on: SNB-75 CNS
[8] = tested on: CAKI-1 renal
[9] = tested on: SW-620 colon
[10] = tested on: SF-268 CNS
[11] = tested on: MALME-3M melanoma
[12] = tested on: UACC-257 melanoma
[13] = tested on: HOP-62 NSCLC
[14] = tested on: SK-MEL-5 melanoma
[15] = tested on: OVCAR-4 ovarian
[16] = tested on: SN12C renal
[17] = tested on: IGROV1 ovarian
[18] = tested on: EKVX NSCLC
[19] = tested on: TK-10 renal
[20] = tested on: NCI/ADR-RES ovarian
[21] = tested on: SF-539 CNS
[22] = tested on: SF-295 CNS
[23] = tested on: A549 NSCLC
[24] = tested on: OVCAR-8 ovarian
[25] = tested on: COLO 205 colon
[26] = tested on: HL-60(TB) leukemia
[27] = tested on: HOP-92 NSCLC
[28] = tested on: PC-3 prostate
[29] = tested on: HCT-116 colon
[30] = tested on: ACHN renal
[31] = tested on: OVCAR-5 ovarian
[32] = tested on: SNB-19 CNS
[33] = tested on: K-562 leukemia
[34] = tested on: HCC-2998 colon
[35] = tested on: SK-MEL-2 melanoma
[36] = tested on: NCI-H23 lung
[37] = tested on: M14 melanoma
[38] = tested on: 786-0 renal
[39] = tested on: MCF7 breast
[40] = tested on: KM12 colon
[41] = tested on: A498 renal
[42] = tested on: NCI-H226 lung
[43] = tested on: HCT-15 colon
[44] = tested on: MOLT-4 leukemia
[45] = tested on: NCI-H460 lung
[46] = tested on: SK-OV-3 ovarian
[47] = tested on: RXF 393 renal
[48] = tested on: T-47D breast
[49] = tested on: HT29 colon
[50] = tested on: NCI-H522 lung
[51] = tested on: LOX IMVI melanoma
[52] = tested on: RPMI-8226 leukemia
[53] = tested on: CCRF-CEM leukemia
[54] = tested on: MDA-MB-231 breast
[55] = tested on: BT-549 breast
[56] = tested on: HS 578T breast
[57] = tested on: SR leukemia
[58] = tested on: U251 CNS

**Q.** What does the source list for `ClC1=C(Cl)C(Cl)=C(Cl)C1=Cc1ccccc1`?
**A.** GI50 [1]: 463 nM; TGI [1]: 1620 nM; GI50 [2]: 350 nM; TGI [2]: 1160 nM; GI50 [3]: 1620 nM; TGI [3]: 3270 nM; GI50 [4]: 1650 nM; TGI [4]: 5020 nM; GI50 [5]: 708 nM; TGI [5]: 2830 nM; GI50 [6]: 527 nM; TGI [6]: 1980 nM; GI50 [7]: 1460 nM; TGI [7]: 3100 nM; GI50 [8]: 342 nM; TGI [8]: 1130 nM; GI50 [9]: 293 nM; TGI [9]: 1030 nM; GI50 [10]: 753 nM; TGI [10]: 2430 nM; GI50 [11]: 1490 nM; TGI [11]: 4150 nM; GI50 [12]: 731 nM; TGI [12]: 2130 nM; GI50 [13]: 1640 nM; TGI [13]: 3680 nM; GI50 [14]: 1380 nM; TGI [14]: 2680 nM; GI50 [15]: 2000 nM; TGI [15]: 6920 nM; GI50 [16]: 1950 nM; TGI [16]: 7150 nM; GI50 [17]: 916 nM; TGI [17]: 2510 nM; GI50 [18]: 1400 nM; TGI [18]: 3390 nM; GI50 [19]: 645 nM; TGI [19]: 2020 nM; GI50 [20]: 287 nM; TGI [20]: 1160 nM; GI50 [21]: 1830 nM; TGI [21]: 4200 nM; GI50 [22]: 1330 nM; TGI [22]: 3740 nM; GI50 [23]: 1630 nM; TGI [23]: 4320 nM; GI50 [24]: 417 nM; TGI [24]: 21000 nM; GI50 [25]: 937 nM; TGI [25]: 2650 nM; GI50 [26]: 595 nM; TGI [26]: 2400 nM; GI50 [27]: 621 nM; TGI [27]: 1610 nM; GI50 [28]: 622 nM; TGI [28]: 3700 nM; GI50 [29]: 293 nM; TGI [29]: 936 nM; GI50 [30]: 703 nM; TGI [30]: 2220 nM; GI50 [31]: 1650 nM; TGI [31]: 3850 nM; GI50 [32]: 1630 nM; TGI [32]: 3580 nM; GI50 [33]: 277 nM; TGI [33]: 3500 nM; GI50 [34]: 1730 nM; TGI [34]: 3140 nM; GI50 [35]: 1380 nM; TGI [35]: 2970 nM; GI50 [36]: 520 nM; TGI [36]: 2080 nM; GI50 [37]: 495 nM; TGI [37]: 2110 nM; GI50 [38]: 1320 nM; TGI [38]: 3080 nM; GI50 [39]: 610 nM; TGI [39]: 7020 nM; GI50 [40]: 1470 nM; TGI [40]: 3110 nM; GI50 [41]: 1390 nM; TGI [41]: 2780 nM; GI50 [42]: 1910 nM; TGI [42]: 3860 nM; GI50 [43]: 1220 nM; TGI [43]: 6040 nM; GI50 [44]: 314 nM; TGI [44]: 1560 nM; GI50 [45]: 1250 nM; TGI [45]: 4130 nM; GI50 [46]: 2000 nM; TGI [46]: 4660 nM; GI50 [47]: 920 nM; TGI [47]: 2230 nM; GI50 [48]: 1150 nM; TGI [48]: 3560 nM; GI50 [49]: 457 nM; TGI [49]: 2270 nM; GI50 [50]: 189 nM; TGI [50]: 459 nM; GI50 [51]: 198 nM; TGI [51]: 469 nM; GI50 [52]: 311 nM; TGI [52]: 2300 nM; GI50 [53]: 288 nM; TGI [53]: 3570 nM; GI50 [54]: 2430 nM; TGI [54]: 10400 nM; GI50 [55]: 1680 nM; TGI [55]: 3890 nM; GI50 [56]: 915 nM; TGI [56]: 10100 nM; GI50 [57]: 334 nM; TGI [57]: 2570 nM; GI50 [58]: 517 nM; TGI [58]: 1590 nM
